In article PMC4104029, “Mechanism of Action of Compound-13: An α1-Selective Small Molecule Activator of AMPK” (Chemistry & Biology, 2014):

Legend:
[1] = tested on: α1-containing complexes (α1β1γ1, α1β2γ1, and α1β1γ2); test: AMPK allosteric activation, summary over several complexes; assay type: biochemical, human; conditions: range over several AMPK complexes, cell-free
Description: We initially compared the ability of C2 and AMP to activate various recombinant human AMPK complexes, expressed in insect cells, in cell-free assays (Figure 1B). As reported previously using rat liver complexes separated by immunoprecipitation ([Salt et al., 1998]), the allosteric activation of α1 complexes by AMP was less than that of α2 complexes. […] Similar results were obtained with other permutations of β and γ subunits in complex with α2 (data not shown). We also tested the effects of C2 and AMP on recombinant human α1β1γ1 and α2β1γ1 complexes expressed in E. coli and obtained similar results (data not shown).
(§1) AMPK phosphotransferase activity was assayed in reactions (50 μl) containing 50 mM HEPES, pH 7.4, 10 mM MgCl2, 0.1 mM EGTA, 1 mM DTT, 0.01% BRIJ-35, 100 μM [γ-^32P]ATP (∼250 CPM⋅pmol^−1) and 200 μM AMARA (AMARAASAAALARRR). Reactions were started by the addition of AMPK (5 mU), incubated for 20 min at 30°C and quenched by spotting onto P81 and immersion in 75 mM H3PO4. Washed filters were dried and [^32P] incorporation determined by Cherenkov counting. AMPK activity in cell extracts was determined by immunoprecipitation with AMPKα1 or AMPKα2 antibodies from 50 μg material, as previously described ([Hunter et al., 2011]). […]

[2] = tested on: rat liver AMPK (mixture of α1β1γ1 and α2β1γ1); test: Rat liver AMPK activation assay; assay type: biochemical; conditions: for EC50: 0.2 mM ATP and 0.2 mM AMARA
Protocol: as §1, with “2011]). Results are expressed as picomoles Pi incorporated per minute-milligram or the fold increase in activity compared to controls in the absence of the compound and were fitted to the following equation: v=vo+{(vmax−vo)[A]^h/Kah+[A]^h}, where v is the velocity, vo is the velocity in the absence of compound, [A] is the concentration of activator, Ka is the concentration of activator that increases velocity to 50% maximal stimulated activity, and h is the Hill coefficient.” for “2011]).”
Figure S3, related to Figure 2. C2 is a partial agonist of rat liver AMPK and is antagonised by ADP but has no effect on isolated AMPKα subunits. (A) Full-length human AMPKα1 and α2 subunits were prepared in E.coli and activated with CAMKK as described in Methods. Isolated AMPKα subunits were assayed under standard conditions in the presence of C2 (0 - 1000 nM). Results are expressed normalised to maximal activity in the absence of ligand and represent the average ± SD of three independent experiments on a single preparation of kinase. (B) Rat liver purified AMPK (containing α1 and α2 subunits in complex with β1γ1) was assayed for activation by AMP and C2 in the presence of 0.2 mM ATP and 0.2 mM AMARA as described in Methods. Results are expressed as mean Pi incorporated in nmol.min-1.mg-1 ± SD. (C) Rat liver AMPK was assayed under standard conditions in the presence of saturating AMP (30 µM) and increasing concentrations of C2 (0 - 10 µM). (D) Recombinant AMPK α1β1γ1 was assayed under standard conditions in the presence of 1 μM C2 and increasing concentrations of ADP (0 - 200 μM). Results are expressed as fold increase in activity relative to controls in the absence of compound ± SD.
(E) C2 and AMP displace a GST-AMPKγ2 subunit fusion from ATP-γ-Sepharose. A purified C-terminal fragment of AMPKγ2 bearing CBS domains 1-4 was absorbed onto ATP- […]
Sepharose. […]
PAGE and staining with colloidal Coomassie. (F) Recombinant PP2Cα was assayed by monitoring the release of phosphate from 100 μM EFLR(pT)SCGS in the presence of increasing concentrations of C2 (0 – 100 μM). The plant alkaloid, sanguinarine was included as a positive control for inhibition of phosphatase activity. […]

| SMILES | EC50 [1] [µM] | EC50 [2] [µM] | extent of activation compared with AMP [2] | reduction of activity stimulated by 30 μM AMP ([2]; C2 0–10 µM) |
| --- | --- | --- | --- | --- |
| Nc1ncnc2c1ncn2[C@@H]1O[C@H](COP(=O)(O)O)[C@@H](O)[C@H]1O [AMP, reference compound] | 2 to 4 | 3.6 ± 0.2 |  |  |
| O=P(O)(O)c1ccc(-c2cc(O)on2)o1 [Compound C2, 5-(5-hydroxyl-isoxazol-3-yl)-furan-2-phosphonic acid] | 0.01 to 0.03 | 0.065 ± 0.004 | only half the extent | ≈ 50% |
